# Measured values from US20240190872A1, “FABI INHIBITORS FOR GRAM-NEGATIVE PATHOGENS” (THE BOARD OF TRUSTEES OF THE UNIVERSITY OF ILLINOIS, priority 2021, published 2024).
# Legend:
# [1] = test system: S. aureus ATCC 29213; experiment: Antimicrobial susceptibility test (MIC), micro-dilution broth; assay type: cell-based; settings: S. aureus ATCC 29213
# Description: (§1) Bacterial strains. S. aureus ATCC 29213, E. coli MG1655, E. coli BAA-2340, E. coli BAA-2469, E. coli BAA-2471, E. cloacae BAA-2341, E. cloacae BAA-2468, K. pneumoniae BAA-1705, K. pneumoniae BAA-2342, K. pneumoniae BAA-2470, K. pneumoniae BAA-2472, and K. pneumoniae BAA-2473 were obtained from ATCC. E. coli JW5503 and E. coli JW3596 were obtained from the KEIO Collection. E. cloacae ATCC 29893 was provided by W. van der Donk (UIUC). E. coli AR-0346, E. coli AR-0349, E. coli AR-0493, E. coli AR-0495, and K. pneumoniae AR-0347 were obtained from the CDC and FDA AR Isolate Bank. E. coli F20987, E. coli M66623, E. cloacae S28901.1, K. pneumoniae M14723, K. pneumoniae M67198, K. pneumoniae M67297, K. pneumoniae S20595, K. pneumoniae S47889, A. baumannii W41979, A. baumannii F19521, A. baumannii M13100, and A. baumannii WO22 were obtained from the University of Illinois Chicago Medical School. A. baumannii KB304, A. baumannii KB343, and A. baumannii KB357 were provided by J. Quale.
# (§2) Antimicrobial susceptibility tests. Susceptibility testing was performed in biological triplicate, using the micro-dilution broth method as outlined by the Clinical and Laboratory Standards Institute. Bacteria were cultured with cation-adjusted Muller-Hinton broth (Sigma-Aldrich, Cat# 90922) in round-bottom 96-well plates (Corning, Cat# 3788). Human serum (pooled gender, 0.2 μm filtered) was purchased from BioIVT (Hicksville, NY).
# [2] = test system: E. coli ΔtolC (JW5503); assay type: cell-based; settings: efflux deficient E. coli ΔtolC
# Experimental: (§3) The compounds synthesized, shown in Table 1, were evaluated against Gram-positive and Gram-negative reference strains (S. aureus 29213 and E. coli MG1655, respectively), as well as an efflux deficient E. coli strain (ΔtolC, JW5503).
# as §1, §2
# [3] = test system: E. coli MG1655; experiment: Antimicrobial susceptibility test (MIC); assay type: cell-based
# Description: as §1, §2
# [4] = test system: K. pneumoniae BAA 2472; experiment: microbe, parasite or virus in culture; assay type: cell-based
# Experimental: as §3, §1, §2
# [5] = test system: A. baumannii AR 0033; experiment: microbe, parasite or virus in culture; assay type: cell-based
# Experimental: as §2
# [6] = test system: A. baumannii AR 0273; experiment: microbe, parasite or virus in culture; assay type: cell-based
# Experimental: as §2
# [7] = test system: A. baumannii AR 0299; experiment: microbe, parasite or virus in culture; assay type: cell-based
# Experimental: as §2
# [8] = test system: A. baumannii AR 0313; experiment: microbe, parasite or virus in culture; assay type: cell-based
# Experimental: as §2
# [9] = test system: E. coli AR 0048; experiment: microbe, parasite or virus in culture; assay type: cell-based
# Experimental: as §2
# [10] = test system: E. coli AR 0085; experiment: microbe, parasite or virus in culture; assay type: cell-based
# Experimental: as §2
# [11] = test system: K. pneumoniae AR 0066; experiment: microbe, parasite or virus in culture; assay type: cell-based
# Experimental: as §2
# [12] = test system: K. pneumoniae AR 0113; experiment: microbe, parasite or virus in culture; assay type: cell-based
# Experimental: as §2
# [13] = test system: K. pneumoniae AR 0560; experiment: microbe, parasite or virus in culture; assay type: cell-based
# Experimental: as §2
# [14] = test system: two E. coli, four K. pneumoneia, and four A. baumannii strains; experiment: MIC against Gram-negative clinical isolate challenge panel (ten isolates); assay type: cell-based
# Experimental: as §3, §2
# [15] = target: A. baumannii FabI (Acinetobacter baumannii, UniProt D0CAD5); experiment: biochemical
# A. baumannii FabI, sequence (D0CAD5 1-288): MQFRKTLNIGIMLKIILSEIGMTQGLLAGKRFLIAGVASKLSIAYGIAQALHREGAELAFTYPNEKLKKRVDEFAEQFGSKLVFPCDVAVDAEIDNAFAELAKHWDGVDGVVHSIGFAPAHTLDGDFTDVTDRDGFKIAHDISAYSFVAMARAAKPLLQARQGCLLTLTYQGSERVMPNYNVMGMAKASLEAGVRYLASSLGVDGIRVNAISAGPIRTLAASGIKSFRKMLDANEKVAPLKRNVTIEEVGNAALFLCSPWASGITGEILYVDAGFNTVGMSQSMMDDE
# Experimental: (§4) Mode of Action. To probe the effects of varying ring systems and amine placement on FabI target engagement, the apparent inhibition constants (Ki^app) for select compounds were determined using purified FabI. The goal of these studies was two-fold, to comparatively assess fabimycin, Debio-1452-NH3, and Debio-1452, and to also assess differential activity against the E. coli and A. baumannii versions of FabI. FabI from E. coli and A. baumannii were recombinantly expressed and purified, and the ability for each compound to inhibit the activity of these enzymes was evaluated using a standard FabI enzyme assay.
# In vitro FabI inhibition assay. NADH (Sigma-Aldrich, Cat# N8129) and crotonoyl-CoA (Sigma-Aldrich, Cat# 28007) were both diluted into activity buffer [100 mM potassium glutamate (pH 7.8)], and working solution was dispensed into two columns of round-bottom 96-well plate (330 μL per well). Inhibitors, dissolved in DMSO at 200× final concentration, were added to each well via multichannel pipette (2.48 μL per well). After thorough mixing, this mixture was transferred to UV-transparent plate (UV-STAR half-area 96-well plate, Greiner Bio-One, Cat#675801, 100 μL per well, three technical replicates per inhibitor concentration). Plate was placed in plate-reader (SpectraMax 190, Molecular Devices) under temperature control (25° C.), and temperature was allowed to equilibrate. Fresh aliquot of enzyme from −80° C. was thawed on ice and diluted in activity buffer. Enzyme working solution was added to plate (50 μL per well, 20 nM enzyme final). After shaking for 5 s, reaction progress was monitored by absorbance at 340 nm every 15 s for 90 min. Linear portion of reaction progress curve was fit using plate-reader software (SoftMax Pro 7.0). Percent activity was calculated relative to DMSO-only and no-enzyme controls in each plate. Percent activity curves were fit to Morrison's quadratic using Graphpad Prism 6.0 to obtain apparent Ki.
# [16] = target: E. coli FabI (Escherichia coli (strain K12), UniProt P0AEK4); experiment: In vitro FabI inhibition assay; assay type: biochemical
# E. coli FabI, sequence (P0AEK4 whole entry): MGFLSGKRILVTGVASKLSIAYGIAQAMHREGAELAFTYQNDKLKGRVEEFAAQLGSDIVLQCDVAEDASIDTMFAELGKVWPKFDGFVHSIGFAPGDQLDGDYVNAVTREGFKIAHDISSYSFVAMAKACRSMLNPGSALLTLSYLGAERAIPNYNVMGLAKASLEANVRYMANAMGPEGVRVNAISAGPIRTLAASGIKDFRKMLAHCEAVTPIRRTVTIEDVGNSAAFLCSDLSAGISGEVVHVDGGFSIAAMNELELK
# Experimental: as §4
# In vitro FabI inhibition assay. NADH (Sigma-Aldrich, Cat# N8129) and crotonoyl-CoA (Sigma-Aldrich, Cat# 28007) were both diluted into activity buffer [100 mM potassium glutamate (pH 7.8)], and working solution was dispensed into two columns of round-bottom 96-well plate (330 μL per well). […] Plate was placed in plate-reader (SpectraMax 190, Molecular Devices) under temperature control (25° C.), and temperature was allowed to equilibrate. […] After shaking for 5 s, reaction progress was monitored by absorbance at 340 nm every 15 s for 90 min. Linear portion of reaction progress curve was fit using plate-reader software (SoftMax Pro 7.0). Percent activity was calculated relative to DMSO-only and no-enzyme controls in each plate. […]
# [17] = test system: H. sapiens HFF-1; experiment: In-vitro cytotoxicity; assay type: cell-based
# [18] = test system: H. sapiens A549; experiment: In-vitro cytotoxicity; assay type: cell-based
# [19] = target: HERG (Homo sapiens (Human), UniProt Q12809); experiment: cell-based
# HERG, sequence (Q12809 whole entry): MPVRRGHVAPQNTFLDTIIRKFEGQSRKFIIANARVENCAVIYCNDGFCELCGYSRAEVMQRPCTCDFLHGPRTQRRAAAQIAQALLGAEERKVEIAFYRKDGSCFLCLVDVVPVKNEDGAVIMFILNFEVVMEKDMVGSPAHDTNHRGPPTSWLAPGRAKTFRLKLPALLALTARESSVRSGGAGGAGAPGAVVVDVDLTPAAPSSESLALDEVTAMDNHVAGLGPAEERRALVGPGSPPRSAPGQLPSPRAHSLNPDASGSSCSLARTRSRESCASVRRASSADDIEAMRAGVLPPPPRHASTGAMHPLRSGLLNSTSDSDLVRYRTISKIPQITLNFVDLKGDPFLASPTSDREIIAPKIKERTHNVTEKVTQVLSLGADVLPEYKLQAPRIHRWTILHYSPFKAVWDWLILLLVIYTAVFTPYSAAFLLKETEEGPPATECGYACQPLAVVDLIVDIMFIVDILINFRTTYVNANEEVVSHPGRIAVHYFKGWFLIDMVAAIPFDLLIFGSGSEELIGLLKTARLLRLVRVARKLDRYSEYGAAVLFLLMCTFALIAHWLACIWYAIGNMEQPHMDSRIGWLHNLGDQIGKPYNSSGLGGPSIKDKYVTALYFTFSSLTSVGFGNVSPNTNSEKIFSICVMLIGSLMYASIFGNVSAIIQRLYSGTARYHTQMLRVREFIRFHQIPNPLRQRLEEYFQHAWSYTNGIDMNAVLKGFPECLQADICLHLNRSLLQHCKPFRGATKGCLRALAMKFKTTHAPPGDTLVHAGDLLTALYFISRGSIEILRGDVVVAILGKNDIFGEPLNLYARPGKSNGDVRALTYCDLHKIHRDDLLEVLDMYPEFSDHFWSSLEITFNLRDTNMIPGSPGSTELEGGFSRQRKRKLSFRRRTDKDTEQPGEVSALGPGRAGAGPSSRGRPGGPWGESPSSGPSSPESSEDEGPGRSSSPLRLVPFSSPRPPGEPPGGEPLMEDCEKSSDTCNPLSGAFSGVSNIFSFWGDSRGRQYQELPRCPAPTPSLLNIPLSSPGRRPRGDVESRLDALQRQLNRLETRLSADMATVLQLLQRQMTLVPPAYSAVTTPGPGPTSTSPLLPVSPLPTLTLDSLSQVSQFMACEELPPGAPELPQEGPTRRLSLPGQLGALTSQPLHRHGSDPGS
# [20] = Plasma protein binding; settings: mouse, plasma
# [21] = Plasma protein binding; settings: human, plasma
# [22] = Maximal tolerated dose (MTD) in mice
# Experimental: Mouse MTD of Debio-1452-NH3. The protocol was approved by the IACUC at the University of Illinois at Urbana-Champaign (Protocol Number:16144). In these studies, 10- to 12-week-old female C57BL/6 mice purchased from Charles River were used. The maximum tolerate dose (MTD) of single compound was determined first. Debio-1452 amine analogues were formulated in 20% sulfobutyl ether β-cyclodextrin in sterile water. Debio-1452-NH3 (1), and compounds 2 and 3 were given by IP injection and mice were monitored for signs of toxicity for 2 weeks (single dose). For multiple dose, the compound was given by daily IP for 5 consecutive days and mice were monitored for signs of toxicity for 1 month. MTD was the highest dosage with acceptable toxicity (e.g. <20% weight loss). Single dose MTDs were initially determined. […] The MTD of Debio-1452-NH3 (1) was used to inform the dosing schedule used in subsequent efficacy studies.
# [23] = test system: IMR90; experiment: Toxicity screen against mammalian cell lines (72 h), Alamar Blue; assay type: cell-based
# Experimental: Cell culture. IMR90 cells were obtained from ATCC. IMR90 cells were grown in EMEM with 10% fetal bovine serum (Gemini Benchmark, Cat# 100-106), 100 U/mL penicillin, and 100 μg/mL streptomycin. All cells were cultured at 37° C. in a 5% CO2 environment. Media was prepared by the Univeristy of Illinois School of Chemical Sciences Cell Media Facility. Sex and age of cell lines: IMR90 ([…]).
# Cell viability. Cells seeded (IMR90: 5,000 cells/well) a 96-well plate (Greiner Bio-One, Cat# 655180) and were allowed to attach overnight. […] Raptinal (100 μM) was used as a dead control. After 24 h post-treatment, media was exchanged with compound-free media. […] Stock Alamar Blue solution [10 μL, 440 μM resazurin (Sigma-Aldrich, Cat# R7017) in sterile 1×PBS] was added to each well, and plate was incubated […]. Conversion of Alamar Blue was measured with plate reader (SpectraMax M3, Molecular Devices) by fluorescence (ex 555 nm, em 585 nm, cutoff 570 nm, autogain). Percent death was determined by normalizing to DMSO-treated cells and raptinal-treated cells.
# [24] = test system: Hep G2; experiment: Toxicity screen against mammalian cell lines (72 h); assay type: cell-based
# [25] = female, C57BL/6, mouse, in vivo
smiles,measurement,setting,value
Cc1c(CN(C)C(=O)/C=C/c2cnc3c(c2)CCC(N)C(=O)N3)oc2ccccc12 (racemic) [(±)-11],MIC S. aureus 29213,[1],0.016 µg/mL
same,MIC E. coli ΔtolC,[2],0.031 µg/mL
same,MIC E. coli MG1655,[3]; E. coli MG1655,4 µg/mL
same,MIC K. pneumoniae BAA 2472,[4]; clinical isolate,8 µg/mL
same,MIC A. baumannii AR 0033,[5]; clinical isolate,4 µg/mL
same,MIC A. baumannii AR 0273,[6]; clinical isolate,8 µg/mL
same,MIC A. baumannii AR 0299,[7]; clinical isolate,4 µg/mL
same,MIC A. baumannii AR 0313,[8]; clinical isolate,8 µg/mL
same,MIC E. coli AR 0048,[9]; clinical isolate,4 µg/mL
same,MIC E. coli AR 0085,[10]; clinical isolate,4 µg/mL
same,MIC K. pneumoniae AR 0066,[11]; clinical isolate,8 µg/mL
same,MIC K. pneumoniae AR 0113,[12]; clinical isolate,8 µg/mL
same,MIC K. pneumoniae AR 0560,[13]; clinical isolate,8 µg/mL
same,concentration at which all strains of the clinical isolate challenge panel are inhibited,[14],≤ 8 µg/mL
"Cc1c(CN(C)C(=O)/C=C/c2cnc3c(c2)CC(N)C(=O)N3)oc2ccccc12 (racemic) [Debio-1452-NH3, (E)-3-(6-amino-7-oxo-5,6,7,8-tetrahydro-1,8-naphthyridin-3-yl)-N-methyl-N-((3-methylbenzofuran-2-yl)methyl)acrylamide]",Ki,[15],0.114 µM
same,Ki,[16],0.0035 ± 0.0005 µM
same,inhibition at 30 µM,[17],11 ± 2%
same,IC50,[17]; cytotoxicity,63 ± 33 µM
same,inhibition at 30 µM,[18],29 ± 4%
same,IC50,[18]; cytotoxicity,68 ± 4 µM
same,IC50,[19],5.7 µM
same,fraction unbound,[20],0.055
same,fraction unbound,[21],0.107
"Cc1c(CN(C)C(=O)/C=C/c2cnc3c(c2)CC(N)C(=O)N3)oc2ccccc12.Cl (stereo not drawn) [Debio-1452-NH3, (E)-3-(6-amino-7-oxo-5,6,7,8-tetrahydro-1,8-naphthyridin-3-yl)-N-methyl-N-((3-methylbenzofuran-2-yl)methyl)acrylamide, reference compound]",MIC,"[1]; Staphylococcus aureus, ATCC29213, read-out: MIC S. aureus 29213",0.031 µg/mL
same,MIC E. coli ΔtolC,[2],0.062 µg/mL
same,MIC,"[3]; Escherichia coli, MG1655",4 µg/mL
same,MIC,"[4]; Klebsiella pneumoniae, BAA2472, read-out: MIC K. pneumoniae BAA 2472, clinical isolate",16 µg/mL
same,MIC,"[5]; Acinetobacter baumannii, AR0033, read-out: MIC A. baumannii AR 0033, clinical isolate",32 µg/mL
same,MIC,"[6]; Acinetobacter baumannii, AR0273, read-out: MIC A. baumannii AR 0273, clinical isolate",32 µg/mL
same,MIC,"[7]; Acinetobacter baumannii, AR0299, read-out: MIC A. baumannii AR 0299, clinical isolate",32 µg/mL
same,MIC,"[8]; Acinetobacter baumannii, AR0313, read-out: MIC A. baumannii AR 0313, clinical isolate",32 µg/mL
same,MIC,"[9]; Escherichia coli, AR0048, read-out: MIC E. coli AR 0048, clinical isolate",32 µg/mL
same,MIC,"[10]; Escherichia coli, AR0085, read-out: MIC E. coli AR 0085, clinical isolate",16 µg/mL
same,MIC,"[11]; Klebsiella pneumoniae, AR0066, read-out: MIC K. pneumoniae AR 0066, clinical isolate",32 µg/mL
same,MIC,"[12]; Klebsiella pneumoniae, AR0113, read-out: MIC K. pneumoniae AR 0113, clinical isolate",32 µg/mL
same,MIC,"[13]; Klebsiella pneumoniae, AR0560, read-out: MIC K. pneumoniae AR 0560, clinical isolate",32 µg/mL
same,well tolerated daily dosing for 5 consecutive days,"[22]; daily IP, 5 consecutive days, female C57BL/6 mice",50 mg/kg
same,MTD at 2 weeks,[22]; [25],50 mg/kg
same,MTD at 5 d,[22]; [25],50 mg/kg
same,Multi-day single-dose MTD,"[22]; female, C57BL/6, mouse, in vivo, 5 d","50 mg/kg, 5 d"
same,MTD at 2 weeks,"[22]; female, C57BL/6, mouse, in vivo, ip",50 mg/kg
same,IMR90 % Cell Death,[23]; 30 μM,18 ± 4%
same,IMR90 % Cell Death,[23]; 100 μM,69 ± 5%
same,Hep G2 % Cell Death,[24]; 30 μM,29 ± 8%
same,Hep G2 % Cell Death,[24]; 100 μM,77 ± 3%
